Measurements from patent US10174029B2, “Pyrimidine-2,4-diamine derivatives for treatment of cancer” (THOMAS HELLEDAYS STIFTELSE FOR MEDICINSK FORSKNING, priority 2012, dated 2019).
Counter-ions that a name gives are not always drawn.

Target: MTH1 (Homo sapiens, UniProt P36639)
Test: MTH1 enzymatic assay and IC50 value determination (malachite green)
Assay type: biochemical
Settings: MTH1 4.8 nM, dGTP 100 μM, 15 minutes at 22° C.
Protocol: MTH1 Enzymatic Assay and IC50 Value Determination
MTH1 catalyzes the hydrolysis of dGTP to dGMP and PPi. By coupling the reaction to pyrophosphatase added in excess PPi is converted to Pi that can be detected by using the malachite green assay reagent. Briefly, for IC50 value determination the compound to be analyzed is diluted in assay buffer in a 1:3 dilution series generating 12 different compound concentrations giving a final DMSO concentration of 1% in the assay well. MTH1 diluted in assay buffer (100 mM Tris-acetate, 40 mM NaCl, 10 mM magnesium acetate, 1 mM DTT and 0.005% Tween 20) fortified with E. coli pyrophosphatase (0.8 U/ml) is added to a final concentration of 4.8 nM. dGTP diluted in assay buffer is added to a final concentration of 100 μM. The reaction mixture is incubated with shaking for 15 minutes at 22° C. To 100 μl reaction mixture is 25 μl Malachite green assay regent (0.095% Malachite green in 17% H2SO4, 1.5% Ammonium molybdate, 0.17% Tween 20) added followed by incubation with shaking for 15 minutes at 22° C.
The absorbance of the assay plate is read at 630 nm using an EnVision Multilabel plate reader. The IC50 value is determined by fitting a dose response curve to the data points using nonlinear regression analysis and the equation Y=Bottom+(Top−Bottom)/(1+10^((Log IC50−X)*HillSlope)), where Y is the read absorbance at 630 nm and X is log [compound].

Structure (SMILES)	IC50 (group: less than 200 nM)	IC50 (group: between 2 μM and 10 μM)
CNc1cc(-c2cc(C(C)C)ccc2OC)nc(N)n1 [Example 198, 6-[2-methoxy-5-(propan-2-yl)phenyl]-4-N-methylpyrimidine-2,4-diamine]	< 200 nM	
CNc1cc(-c2cc(Cl)ccc2OC)nc(N)n1 [Example 201, 6-(5-chloro-2-methoxyphenyl)-4-N-methylpyrimidine-2,4-diamine]	< 200 nM	
CNc1cc(-c2cc(F)ccc2C)nc(N)n1 [Example 202, 6-(5-fluoro-2-methylphenyl)-4-N-methylpyrimidine-2,4-diamine]	< 200 nM	
CNc1cc(-c2cc(OC)ccc2OC)nc(N)n1 [Example 203, 6-(2,5-dimethoxyphenyl)-4-N-methylpyrimidine-2,4-diamine]	< 200 nM	
CNc1cc(-c2cc(F)ccc2C(F)(F)F)nc(N)n1 [Example 208, 6-[5-fluoro-2-(trifluoromethyl)phenyl]-4-N-methylpyrimidine-2,4-diamine]	< 200 nM	
CNc1cc(-c2cc(Cl)ccc2Cl)nc(N)n1 [Example 209, 6-(2,5-dichlorophenyl)-4-N-methylpyrimidine-2,4-diamine]	< 200 nM	
CNc1cc(-c2cc(Cl)ccc2F)nc(N)n1 [Example 210, 6-(5-chloro-2-fluorophenyl)-4-N-methylpyrimidine-2,4-diamine]	< 200 nM	
CNc1cc(-c2cc(C#N)ccc2C)nc(N)n1 [Example 211, 3-[2-amino-6-(methylamino)pyrimidin-4-yl]-4-methylbenzonitrile]	< 200 nM	
CNc1cc(-c2cc(F)c(C)cc2Cl)nc(N)n1 [Example 213, 6-(2-chloro-5-fluoro-4-methylphenyl)-4-N-methylpyrimidine-2,4-diamine]	< 200 nM	
CNc1cc(-c2cc(C)c(F)cc2Cl)nc(N)n1 [Example 215, 6-(2-chloro-4-fluoro-5-methylphenyl)-4-N-methylpyrimidine-2,4-diamine]	< 200 nM	
Cc1ccc(Cl)cc1-c1cc(NC2CC2)nc(N)n1 [Example 219, 6-(5-chloro-2-methylphenyl)-4-N-cyclopropylpyrimidine-2,4-diamine]	< 200 nM	
Cc1ccc(Cl)cc1-c1cc(NC2CCC2)nc(N)n1 [Example 220, 6-(5-chloro-2-methylphenyl)-4-N-cyclobutylpyrimidine-2,4-diamine]	< 200 nM	
Cc1ccc(Cl)cc1-c1cc(NCCc2ccc(Cl)cc2)nc(N)n1 [Example 222, 6-(5-chloro-2-methylphenyl)-4-N-[2-(4-chlorophenyl)ethyl]pyrimidine-2,4-diamine]	< 200 nM	
CNc1cc(-c2cccc(C)c2Cl)nc(N)n1 [Example 226, 6-(2-chloro-3-methylphenyl)-4-N-methylpyrimidine-2,4-diamine]	< 200 nM	
Cc1cccc(-c2cc(NC3CC3)nc(N)n2)c1Cl [Example 227, 6-(2-chloro-3-methylphenyl)-4-N-cyclopropylpyrimidine-2,4-diamine]	< 200 nM	
Cc1cccc(-c2cc(NCCc3ccc(Cl)cc3)nc(N)n2)c1Cl [Example 228, 6-(2-chloro-3-methylphenyl)-4-N-[2-(4-chlorophenyl)ethyl]pyrimidine-2,4-diamine]	< 200 nM	
Nc1nc(NC2CC2)cc(-c2cccc3[nH]ccc23)n1 [Example 230, 4-N-cyclopropyl-6-(1H-indol-4-yl)pyrimidine-2,4-diamine]	< 200 nM	
Nc1nc(NCCc2ccc(Cl)cc2)cc(-c2cccc3[nH]ccc23)n1 [Example 231, 4-N-[2-(4-chlorophenyl)ethyl]-6-(1H-indol-4-yl)pyrimidine-2,4-diamine]	< 200 nM	
Nc1nc(NC2CC2)cc(-c2cccc3ncccc23)n1 [Example 232, 4-N-cyclopropyl-6-(quinolin-5-yl)pyrimidine-2,4-diamine]	< 200 nM	
Cc1cccc(-c2cc(NC3CCN(C(=O)OC(C)(C)C)CC3)nc(N)n2)c1C [Example 237, tert-Butyl 4-((2-amino-6-(2,3-dimethylphenyl)pyrimidin-4-yl)amino)piperidine-1-carboxylate]		2000 to 10000 nM
Cc1c(Cl)cccc1-c1cc(NC2CC3CCC2C3)nc(N)n1 (stereo not drawn) [Example 244, 4-N-{bicyclo[2.2.1]heptan-2-yl}-6-(3-chloro-2-methylphenyl)pyrimidine-2,4-diamine]	< 200 nM	

Structure (SMILES)	IC50 (group: less than 200 nM)	IC50 (group: between 2 μM and 10 μM)
CCNc1cc(-c2cccc(Cl)c2C)nc(N)n1 [Example 245, 6-(3-chloro-2-methylphenyl)-4-N-ethylpyrimidine-2,4-diamine]	< 200 nM	
Cc1c(Cl)cccc1-c1cc(NC(C)C)nc(N)n1 [Example 246, 6-(3-chloro-2-methylphenyl)-4-N-(propan-2-yl)pyrimidine-2,4-diamine]	< 200 nM	
Cc1ccc2[nH]c(C)c(CCNc3cc(-c4cccc(C)c4C)nc(N)n3)c2c1 [Example 249, 4-N-[2-(2,5-dimethyl-1H-indol-3-yl)ethyl]-6-(2,3-dimethylphenyl)pyrimidine-2,4-diamine]	< 200 nM	
Cc1cccc(-c2cc(NCc3ccc4cn[nH]c4c3)nc(N)n2)c1C [Example 252, 6-(2,3-dimethylphenyl)-4-N-(1H-indazol-6-ylmethyl)pyrimidine-2,4-diamine]	< 200 nM	
Cc1cccc(-c2cc(NCc3cnc(Cl)cn3)nc(N)n2)c1C [Example 254, 4-N-[(5-chloropyrazin-2-yl)methyl]-6-(2,3-dimethylphenyl)pyrimidine-2,4-diamine]	< 200 nM	
CNc1cc(-c2ccc(OCC3CCN(C(=O)OC(C)(C)C)CC3)c(COC)c2)nc(N)n1 [Example 256, tert-butyl 4-{4-[2-amino-6-(methylamino)pyrimidin-4-yl]-2-(methoxymethyl)phenoxymethyl}piperidine-1-carboxylate]	< 200 nM	
CNc1cc(-c2ccc(OCC3CCNCC3)c(COC)c2)nc(N)n1 [Example 257, 6-[3-(methoxymethyl)-4-(piperidin-4-ylmethoxy)phenyl]-4-N-methylpyrimidine-2,4-diamine hydrochloride]	< 200 nM	
CNc1cc(-c2ccc(OC)c(C)c2C)nc(N)n1 [Example 259, 6-(4-methoxy-2,3-dimethylphenyl)-4-N-methylpyrimidine-2,4-diamine]	< 200 nM	
CNc1cc(-c2ccc(F)c(C)c2C)nc(N)n1 [Example 260, 6-(4-fluoro-2,3-dimethylphenyl)-4-N-methylpyrimidine-2,4-diamine]	< 200 nM	
Cc1ccccc1-c1cc(NCCc2ccc(Cl)cc2)nc(N)n1 [Example 264, 4-N-[2-(4-chlorophenyl)ethyl]-6-(2-methylphenyl)pyrimidine-2,4-diamine]	< 200 nM	
Nc1nc(NCCc2ccc(Cl)cc2)cc(-c2cccc3ncccc23)n1 [Example 266, 4-N-[2-(4-chlorophenyl)ethyl]-6-(quinolin-5-yl)pyrimidine-2,4-diamine]	< 200 nM	
Cc1cccc(-c2cc(NC3CC3c3ccc(Cl)cc3)nc(N)n2)c1C (stereo not drawn) [Example 267, 4-N-[2-(4-chlorophenyl)cyclopropyl]-6-(2,3-dimethylphenyl)pyrimidine-2,4-diamine]	< 200 nM	
Cc1cccc(-c2cc(NCCc3cccc(O)c3)nc(N)n2)c1C [Example 269, 3-(2-{[2-amino-6-(2,3-dimethylphenyl)pyrimidin-4-yl]amino}ethyl)phenol]	< 200 nM	
Cc1cccc(-c2cc(NCCNC(=O)OCc3ccccc3)nc(N)n2)c1C [Example 273, benzyl N-(2-{[2-amino-6-(2,3-dimethylphenyl)pyrimidin-4-yl]amino}ethyl)-carbamate]	< 200 nM	
Cc1cccc(-c2cc(NCCCNC(=O)OC(C)(C)C)nc(N)n2)c1C [Example 275, tert-butyl N-(3-{[2-amino-6-(2,3-dimethylphenyl)pyrimidin-4-yl]amino}propyl)-carbamate]	< 200 nM	
Cc1cc(CCCNc2cc(-c3cccc(C)c3C)nc(N)n2)n[nH]1 [Example 276, 6-(2,3-dimethylphenyl)-4-N-[3-(5-methyl-1H-pyrazol-3-yl)propyl]pyrimidine-2,4-diamine]	< 200 nM	
Cc1cccc(-c2cc(NCCC(=O)N3CCOCC3)nc(N)n2)c1C [Example 277, 3-{[2-amino-6-(2,3-dimethylphenyl)pyrimidin-4-yl]amino}-1-(morpholin-4-yl)propan-1-one]		2000 to 10000 nM
Cc1cccc(-c2cc(N[C@@H]3CN4CCC3CC4)nc(N)n2)c1C [Example 281, 4-N-[(3S)-1-azabicyclo[2.2.2]octan-3-yl]-6-(2,3-dimethylphenyl)pyrimidine-2,4-diamine]		2000 to 10000 nM
Cc1cccc(-c2cc(NCC3CCCN3C(=O)OC(C)(C)C)nc(N)n2)c1C (stereo not drawn) [Example 282, tert-butyl 2-({[2-amino-6-(2,3-dimethylphenyl)pyrimidin-4-yl]amino}methyl)-pyrrolidine-1-carboxylate]	< 200 nM	
Cc1ccc(S(=O)(=O)N2CCOCC2)cc1-c1cc(NCCCN2CCCC2=O)nc(N)n1 [Example 289, 1-[3-({2-amino-6-[2-methyl-5-(morpholine-4-sulfonyl)phenyl]pyrimidin-4-yl}amino)propyl]pyrrolidin-2-one]		2000 to 10000 nM
Cc1cccc(-c2cc(NCC3(c4ccc(Cl)cc4)CC3)nc(N)n2)c1C [Example 295, 4-N-{[1-(4-chlorophenyl)cyclopropyl]methyl}-6-(2,3-dimethylphenyl)pyrimidine-2,4-diamine]	< 200 nM	
